Test results from ChEMBL document CHEMBL5335831, “Total Synthesis of a TNBC-Selective Cytotoxic Bromo Nor-eremophilane, PC-A, and Its Preliminary Structure-Activity Relationships” (J Nat Prod, 2024).
Active and inactive are the calls of the source. The calls are words filed in the database; no cut-off is given here.

Columns and labels:
MDA-MB-231 [1] = assay: Antiproliferative activity against human MDA-MB-231 cells assessed as cell growth inhibition incubated for 72 hrs by sulforhodamine B assay; type: functional, cell-based; conditions: MDA-MB-231, 72 h
A549 = assay: Antiproliferative activity against human A549 cells assessed as cell growth inhibition incubated for 72 hrs by sulforhodamine B assay; type: functional, cell-based; conditions: A549, 72 h
[2] = Antiproliferative activity against human KB-VIN cells assessed as cell growth inhibition incubated for 72 hrs by sulforhodamine B assay; type: functional, cell-based; conditions: KBVIN
MCF7 = assay: Antiproliferative activity against human MCF7 cells assessed as cell growth inhibition incubated for 72 hrs by sulforhodamine B assay; type: functional, cell-based; conditions: MCF7, 72 h
KB = assay: Antiproliferative activity against human KB cells assessed as cell growth inhibition incubated for 72 hrs by sulforhodamine B assay; type: functional, cell-based
MDA-MB-231 [3] = assay: Induction of cell cycle arrest in human MDA-MB-231 cells assessed as accumulation of cells at G2/M phase at IC50 incubated for 24 hrs by propidium iodide staining based flow cytometry; type: functional
MDA-MB-231 [4] = assay: Induction of cell cycle arrest in human MDA-MB-231 cells assessed as accumulation of cells at sub-G1 phase at 8 x IC50 incubated for 24 hrs by propidium iodide staining based flow cytometry; type: functional
MDA-MB-231 [5] = assay: Induction of nuclear fragmentation in human MDA-MB-231 cells at 8 x IC50 incubated for 24 hrs by propidium iodide staining based flow cytometry; type: functional, cell-based
MDA-MB-231 [6] = assay: Induction of cell cycle arrest in human MDA-MB-231 cells assessed as accumulation of cells at G2/M phase at IC50 x 8 incubated for 24 hrs by propidium iodide staining based flow cytometry; type: functional

Row | Compound | IC50 (MDA-MB-231 [1]) | IC50 (A549) | IC50 [2] | IC50 (MCF7) | IC50 (KB) | Activity (MDA-MB-231 [3]) | Activity (MDA-MB-231 [4]) | Activity (MDA-MB-231 [5]) | Activity (MDA-MB-231 [6])
1 | C[C@H]1C(=O)C=CC2=CC(=O)CC[C@@]21C | > 40 µM | > 40 µM | > 40 µM | > 40 µM | > 40 µM | – | – | – | –
2 | CC(=O)C1=C(O)C=C2C=C[C@H](O)[C@H](C)[C@@]2(C)C1 | > 40 µM | > 40 µM | > 40 µM | > 40 µM | > 40 µM | – | – | – | –
3 | CC(=O)O[C@H]1C(=O)[C@@]2(C)[C@H]([C@H](OC(=O)c3ccccc3)[C@]3(O)C[C@H](OC(=O)[C@H](O)[C@@H](NC(=O)c4ccccc4)c4ccccc4)C(C)=C1C3(C)C)[C@]1(OC(C)=O)CO[C@@H]1C[C@@H]2O [PACLITAXEL] | – | 0.0054 µM | 2.4 µM | 0.011 µM | – | – | – | – | –
4 | CC(=O)C1=C(O)C=C2C(Br)=CC(=O)[C@H](C)[C@@]2(C)C1 | 5.3 µM | 7.9 µM | 8 µM | 6.9 µM | 5 µM | Active | – | – | –
5 | C[C@H]1[C@H](O)C=C(Br)C2=CC(=O)CC[C@@]21C | 32 µM | 35 µM | 37 µM | 36 µM | 29 µM | – | – | – | –
6 | C[C@H]1[C@H](O)C=CC2=CC(=O)CC[C@@]21C | > 40 µM | > 40 µM | > 40 µM | > 40 µM | 32 µM | – | – | – | –
7 | C[C@H]1C(=O)C=C(Br)C2=CC(=O)CC[C@@]21C | 6.4 µM | 25 µM | 19 µM | 17 µM | 18 µM | Active | Active | Active | –
8 | CC(=O)C1=C(O)C=C2C=CC(=O)[C@H](C)[C@@]2(C)C1 | 31 µM | 29 µM | 26 µM | 16 µM | 9.5 µM | – | – | – | –
9 | CC(=O)C1=C(O)C=C2C(Br)=C[C@H](O)[C@H](C)[C@@]2(C)C1 | 5.2 µM | 19 µM | 18 µM | 13 µM | 15 µM | Active | – | – | Active
